From EP2380575B1, “Eslicarbazepine acetate and use” (Bial-Portela & CA, S.A., priority 2005, dated 2006)
Read-outs that look alike come from different tables or passages of the source. One block for each compound: values may come before it.

Columns and labels:
[1] = Study in epileptic patients: trough plasma concentrations of BIA 2-005; format: in vivo, humans
Description: This clinical trial was a double-blind, randomized, placebo-controlled study performed by 20 centers in Croatia, Czech Republic, Germany, Lithuania and Poland. The stated objectives of the study were to assess the efficacy and safety of BIA 2-093 as adjunctive therapy in patients with refractory partial epilepsy. In total, 143 patients aged 18-65 years with at least 4 partial-onset seizures per month in spite of treatment with 1 or 2 antiepileptic drugs (AEDs) (e.g., phenytoin, valproate, primidone, phenobarbital, lamotrigine, gabapentin, topiramate or clonazepam) were randomly assigned to one of three groups: treatment with placebo (n=47), BIA 2-093 once-daily (n=50), or BIA 2-093 twice-daily (n=46), during 12 weeks (plus 1 week of tapering off). For the first 4 weeks, daily dose was 400 mg. Then, daily doses were increased to 800 mg (weeks 5-8), and finally to 1200 mg (weeks 9-12). […] See, e.g., Almeida I and Almeida II.
Plasma/serum samples for the "trough" (pre-dose) levels of BIA 2-005 and concomitant AEDs were collected at all visits but V5 (post-study visit). The objective was to characterize the influence of eslicarbazepine acetate on the pharmacokinetic behavior of the concomitant AEDs (e.g., phenytoin, valproate, primidone, phenobarbital, lamotrigine, gabapentin, topiramate, and clonazepam). […] Table 1: Trough plasma concentrations of BIA 2-005 following oral administration of eslicarbazepine acetate once-daily (o.d.) and twice-daily (b.i.d)

[2] = Metabolic profile in liver microsomes, chiral analysis; format: in vitro ADME; settings: liver microsomes from rats, dogs, monkeys and humans, not the R(-) form
[3] = system: patients with refractory partial epilepsy; assay: Study in epileptic patients: efficacy as adjunctive therapy; format: in vivo, humans; settings: for reduction in the number of seizures: versus baseline; for proportion of responders (50% or greater reduction in seizure frequency vs baseline): ITT
Experimental: The effects of eslicarbazepine acetate in humans was studied in at least the following clinical studies. In the first study, a placebo-controlled therapeutic exploratory study, once-daily and twice-daily dosing was compared in epileptic patients refractory to standard anti-epileptic drug therapy. In the second study, healthy subjects received either a once-daily (o.d.) oral dose of 900 mg of eslicarbazepine acetate or a twice-daily (b.i.d.) dose of 450 mg of eslicarbazepine acetate. In the third study, healthy subjects received single oral doses of eslicarbazepine acetate ranging from 20 mg to 2400 mg, and repeated once-daily (o.d.) oral doses ranging from 400 mg to 2400 mg of eslicarbazepine acetate. This clinical trial was a double-blind, randomized, placebo-controlled study performed by 20 centers in Croatia, Czech Republic, Germany, Lithuania and Poland. The stated objectives of the study were to assess the efficacy and safety of BIA 2-093 as adjunctive therapy in patients with refractory partial epilepsy. […] For the first 4 weeks, daily dose was 400 mg. Then, daily doses were increased to 800 mg (weeks 5-8), and finally to 1200 mg (weeks 9-12). […] See, […] and Almeida II. The proportion of patients with a 50% or greater reduction in seizure frequency in the treatment period compared to the baseline period in the intention-to-treat (ITT) population (n=143) was the primary efficacy endpoint. […] The proportion of responders in the once-daily group (54%) was also higher than in the twice-daily (41%) group. […] At this dose level, no significant difference was found between the twice-daily and the placebo groups. Secondary endpoints include the reduction in total seizure frequency, proportion of seizure-free patients, distribution of responders, comparison of once and twice daily regimens, and investigator's and patient's global evaluation.

[4] = Trial B: pharmacokinetics following single and repeated doses in healthy young male subjects; format: in vivo, humans; settings: in a minor extent to R-licarbazepine
Experimental: The study integrated the results of three double-blind, randomized, placebo-controlled trials. To measure the pharmacokinetics of eslicarbazepine acetate following single doses, oral single doses of eslicarbazepine acetate ranging from 20 mg to 2400 mg were administered to healthy young male subjects (6 subjects per dose). The pharmacokinetics of eslicarbazepine acetate following repeated doses were measured by administering repeated oral doses ranging from 400 mg to 2400 mg of eslicarbazepine acetate to healthy young male subjects (6 subjects per dose) over a period of 8 days. Analytical test methods and experimental procedures were similar to those described for Trial A above.

[5] = system: voltage-gated sodium channel (VGSC); settings: compared with carbamazepine; cited from earlier work
[6] = after oral administration; below LOQ of the assay; cited from earlier work
[7] = not given; remark: listed apart in the source

Trough plasma concentration, Mean (sd) ([1]; 400 mg/day eslicarbazepine acetate, b.i.d. group): 4.9(2.3) µg/mL
Trough plasma concentration, Mean (sd) ([1]; 400 mg/day eslicarbazepine acetate, o.d. group): 4.0 (3.2) µg/mL
Trough plasma concentration, Mean (sd) ([1]; 800 mg/day eslicarbazepine acetate, b.i.d. group): 13.5 (9.6) µg/mL
Trough plasma concentration, Mean (sd) ([1]; 800 mg/day eslicarbazepine acetate, o.d. group): 10.7(7.0) µg/mL
Trough plasma concentration, Mean (sd) ([1]; 1200 mg/day eslicarbazepine acetate, b.i.d. group): 15.5 (8.8) µg/mL
Trough plasma concentration, Mean (sd) ([1]; 1200 mg/day eslicarbazepine acetate, o.d. group): 14.6 (8.8) µg/mL
extent of systemic exposure versus dose (oral eslicarbazepine acetate, healthy subjects): approximately dose-proportional
total amount recovered in the urine (within 12 hours post-dose): about 20%
total amount recovered in the urine (within 24 hours post-dose): ~40%
Compound: NC(=O)N1c2ccccc2CC(O)c2ccccc21 (stereo not drawn) [BIA 2-005]

metabolite formed in liver microsomes [2]: S(+) enantiomer of licarbazepine
plasma concentrations of parent drug ([7]; limit of quantification 10 ng/mL): below the limit of quantification
Compound: CC(=O)O[C@H]1Cc2ccccc2N(C(N)=O)c2ccccc21 [eslicarbazepine acetate]
reduction in the number of seizures ([3]; 400 mg once-daily): 38.9%
reduction in the number of seizures ([3]; 400 mg twice-daily): 20.2%
reduction in the number of seizures ([3]; 800 mg once-daily): 55.8%
reduction in the number of seizures ([3]; 800 mg twice-daily): 38.1%
proportion of responders (50% or greater reduction in seizure frequency vs baseline) ([3]; 800 mg/day (weeks 5-8), once-daily group): 58%
proportion of responders (50% or greater reduction in seizure frequency vs baseline) ([3]; 800 mg/day (weeks 5-8), twice-daily group): 33%
reduction in the number of seizures ([3]; 1200 mg once-daily): 59.5%
reduction in the number of seizures ([3]; 1200 mg twice-daily): 47.5%
proportion of responders (50% or greater reduction in seizure frequency vs baseline) ([3]; 1200 mg/day (weeks 9-12), once-daily group): 54%
proportion of responders (50% or greater reduction in seizure frequency vs baseline) ([3]; 1200 mg/day (weeks 9-12), twice-daily group): 41%
patients seizure-free ([3]; end of the 12-week treatment phase, once-daily group): 27.9%
assessment of efficacy by the investigator (CGI - Clinical Global Impression) and of acceptability by patient ([3]; once-daily group compared with the other groups): rated best
metabolism of eslicarbazepine acetate [4]: extensively metabolized to eslicarbazepine
affinity for the resting state of the channel, lower than that of carbamazepine [5]: about 3 fold
plasma concentrations of the parent drug [6]: < 10 ng/mL
metabolism of eslicarbazepine acetate ([7]; in a minor extent to R-licarbazepine): extensively metabolized to eslicarbazepine
